# Assay results as given in publication PMC6271731, “Multitarget Molecular Hybrids of Cinnamic Acids” (Molecules, 2014).
# Like-named read-outs stand apart in the source and are kept apart here. Marks after values point to notes of the source that are not given here.
# How the values were obtained:
# [1] = biological target: T1, soybean lipoxygenase (Glycine max, UniProt P08170); assay: Soybean lipoxygenase inhibition in vitro; format: biochemical
# T1 construct: purchased Sigma Chemical, Co. (St. Louis, MO, USA)
# T1 sequence (P08170 1-839): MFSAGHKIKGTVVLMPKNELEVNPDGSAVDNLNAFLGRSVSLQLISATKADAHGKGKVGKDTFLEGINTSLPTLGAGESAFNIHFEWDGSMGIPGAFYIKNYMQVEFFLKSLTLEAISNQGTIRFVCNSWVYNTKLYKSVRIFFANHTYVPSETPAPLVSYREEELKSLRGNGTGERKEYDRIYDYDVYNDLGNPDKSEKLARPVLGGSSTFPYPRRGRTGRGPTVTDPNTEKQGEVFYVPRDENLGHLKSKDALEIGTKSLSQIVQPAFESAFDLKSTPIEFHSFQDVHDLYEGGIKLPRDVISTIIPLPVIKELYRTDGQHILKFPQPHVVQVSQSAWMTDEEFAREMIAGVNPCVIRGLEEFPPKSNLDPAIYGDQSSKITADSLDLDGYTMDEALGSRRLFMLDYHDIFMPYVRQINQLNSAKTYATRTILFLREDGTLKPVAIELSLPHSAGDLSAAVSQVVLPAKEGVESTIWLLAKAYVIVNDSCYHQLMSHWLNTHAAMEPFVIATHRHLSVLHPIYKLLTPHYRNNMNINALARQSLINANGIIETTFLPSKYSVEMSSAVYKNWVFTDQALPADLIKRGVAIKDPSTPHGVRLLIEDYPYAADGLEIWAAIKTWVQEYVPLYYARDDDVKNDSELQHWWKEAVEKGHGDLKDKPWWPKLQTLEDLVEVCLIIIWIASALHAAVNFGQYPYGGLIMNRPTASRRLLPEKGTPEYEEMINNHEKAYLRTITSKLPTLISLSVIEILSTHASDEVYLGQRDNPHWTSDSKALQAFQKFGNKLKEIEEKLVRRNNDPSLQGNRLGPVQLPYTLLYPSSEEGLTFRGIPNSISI
# Description: DMSO solution of the tested compound was incubated with sodium linoleate (0.1 mM) and 0.2 mL of soybean lipoxygenase solution (1/9 × 10^−4 w/v in saline) in buffer pH 9 (tris) and at room temperature. […] The results are given in Table 1 expressed as IC50 values or % inhibition at 100 μM.
# [2] = Lipophilicity as RM values by RP-TLC; format: physicochemical; conditions: methanol/water 70/30, 24 °C, average of at least five measurements
# Description: Since lipophilicity is a significant physicochemical property determining distribution, bioavailability, metabolic activity and elimination, we tried to determine experimentally the lipophilicity of the new substances by a RPTLC method as RM values (Table 1) and to compare them with the corresponding theoretically calculated clog p values in n-octanol-buffer. This is considered to be a reliable, fast and convenient method for expressing lipophilicity. Lipophilicity (Table 2), was theoretically calculated as Clog p values in n-octanol-buffer by the CLOGP Programme of Biobyte Corp..
# Reversed phase TLC (RP-TLC) was performed on silica gel plates impregnated with 5% (v/v) liquid paraffin in light petroleum ether. The mobile phase was a methanol/water mixture (70/30, v/v). The plates were developed in closed chromatography tanks saturated with the mobile phase at 24 °C. Spots were detected under UV light. RM values were determined from the corresponding Rf values (from five individual measurements) using the equation RM = log [(1/Rf) − 1] (Table 1).
# [3] = Inhibition of linoleic acid lipid peroxidation (AAPH); conditions: % inhibition at 100 μM; pH 7.4, 37 °C
# Description: Production of conjugated diene hydroperoxide by oxidation of sodium linoleate in an aqueous dispersion is monitored at 234 nm. AAPH is used as a free radical initiator [12, 24]. Ten microlitres of the 16 mM sodium linoleate solution was added to the UV cuvette containing 930 μL of 0.05 M phosphate buffer, pH 7.4 prethermostated at 37 °C. The oxidation reaction was initiated at 37 °C under air by the addition of 40 mM AAPH solution (50 μL). Ten μL of the tested compounds were added in the mixture. Lipid oxidation was measured in the presence of the same level of DMSO. The rate of oxidation at 37 °C was monitored by recording the increase in absorption at 234 nm caused by conjugated diene hydroperoxides. The results were compared to the appropriate standard inhibitor trolox (63%) (Table 1).
# [4] = system: acetic acid-induced writhing; assay: Antinociceptive screen (writhing test); format: in vivo, Wistar rats; conditions: Rattus norvegicus, ip, 0.5 h, i.p. 30 min before 0.6% acetic acid, writhes counted over 30 min, read-out: % ANA (in vivo analgesic-antinociceptive activity)
# Description: (§1) Anti-inflammatory tests were conducted on Fisher-344 inbred rats of ca. 200 g body weight whereas antinociception and motor and sensory functions after sciatic nerve crash were performed on Wistar rats. Both sexes were used. Females pregnant were excluded. Each group was composed of 6 animals. The animals, which have been bred in our laboratory, were housed under standard conditions and received a diet of commercial food pellets and water ad libitum during the maintenance. Our studies were carried out in accordance with recognised guidelines on animal experimentation.
# […] Controls received the liquid vehicle only. All the in vivo experiments were repeated at least in triplicate and were subjected to statistic analysis using the student’s t-test.
# The writhing reflex was used. The test compounds were administered i.p. 30 min prior to the i.p. administration of 1 mL/100 g body weight of 0.6% acetic acid. […] After 5 min, the number of stretches characterized by repeated contractions of the abdominal musculature accompanied by extension of the hind limbs was counted every 5 min for the next 30 min. […] The % antinociceptive activity (a:a) was calculated as: % a:a = (n − n'/n) × 100 (a: a analgesic activity, n average number of writhes of control group, n' average number in the test group).
# [5] = biological target: T2, pancreatic bovine trypsin (Bos taurus, UniProt P00760); assay: Inhibition of trypsin induced proteolysis in vitro; format: biochemical; conditions: bovine albumin substrate, pH 7.6, 37 °C; read-out: IC50 μM Trypsin Inh.
# T2 construct: purchased Sigma Chemical, Co. (St. Louis, MO, USA)
# T2 sequence (P00760 24-246): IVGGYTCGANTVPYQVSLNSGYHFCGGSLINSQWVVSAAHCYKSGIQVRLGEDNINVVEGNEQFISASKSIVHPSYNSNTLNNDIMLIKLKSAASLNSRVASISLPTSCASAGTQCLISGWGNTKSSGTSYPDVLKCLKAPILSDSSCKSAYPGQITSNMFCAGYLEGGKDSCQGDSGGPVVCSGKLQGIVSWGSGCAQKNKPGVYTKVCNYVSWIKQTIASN
# Description: All chemicals, solvents, chemical and biochemical reagents were of analytical grade and purchased from commercial sources (Merck, Merck KGaA, Darmstadt, Germany, Fluka Sigma-Aldrich Laborchemikalien GmbH, Hannover, Germany, Alfa Aesar, Karlsruhe, Germany and Sigma, St. Louis, MO, USA). Soybean lipoxygenase, pancreatic bovine trypsin, sodium linoleate, free radical DPPH and 2,2-azinobis-2-methyl-propanimidamine HCl (AAPH) were obtained from Sigma Chemical, Co. (St. Louis, MO, USA), carrageenin, type K, was commercially available. All starting materials were obtained from commercial sources and used without further purification.
# The test was carried out according to a modified Kunitz method. Bovine albumin was used as substrate for trypsin. The reaction mixture consisted of 0.075 mg/mL trypsin (200 μL) and 780 μL of phosphate buffer pH 7.6 (including the tested compounds (20 μL in DMSO, final concentration 100 μM) preincubated at 37 °C for 20 min and then 1 mL of albumin (stock solution 6 g/100 mL in phosphate buffer 0.1 M, pH 7.6) was added and incubated at 37 °C for 30 min. After the incubation 1 mL of 5% trichloroacetic acid was added to the incubated solution to stop the enzyme’s reaction and allowed to set at room temperature for 1 h. Then the solution was filtered by filter paper and the absorption of the filtered solution was measured at 280 nm. Salicylic acid was used as a reference compound (Table 1).
# [6] = system: carrageenin-induced rat paw oedema; assay: Inhibition of the carrageenin-induced rat paw oedema; format: in vivo, Fisher-344 rats; conditions: 0.01 mmol/1 kg, i.p., 3.5 h after carrageenin
# Description: as §1
# The tested compounds 0.01 mmol/kg body weight were suspended in water with few drops of Tween 80 and ground in a mortar before use. Controls received the liquid vehicle only. All the in vivo experiments were repeated at least in triplicate and were subjected to statistic analysis using the student’s t-test.
# Oedema was induced in the right hind paw of Fisher 344 rats by the intradermal injection of 0.1 mL 2% carrageenin in water. Each group was composed of 6 animals which they were entirely fasted during the experiment period. The tested compounds 0.01 mmol/kg body weight, were given intraperitoneally simultaneously with the carrageenin injection. The rats were euthanized 3.5 h after carrageenin injection. The difference between the weight of the injected and not-injected paws was calculated for each animal. The change in paw weight was compared with that in control animals (treated with water) and expressed as a percent inhibition of the oedema (ICPE % values in Table 1). Indomethacin 0.01 mmol/kg was used as reference compound. ICPE % are the mean values from two different experiments with a standard error of the mean less than 10%.
SMILES,IC50 [1] [µM],RM (±S.D.) [2],AAPH % (% inhibition of lipid peroxidation) [3] [%],inhibition in vivo at 0.01 mmol/0.1 kg [4] [%],IC50 [5] [µM],% ICPE (carrageenin-induced rat paw oedema inhibition) [6],% ICPE (carrageenin-induced rat paw oedema inhibition) ([6]; listed as acid II) [%],"IC50 ([1]; sodium linoleate 0.1 mM, tris buffer pH 9, room temperature, read-out: IC50 μM LOX Inh.) [µM]",% ICPE (carrageenin-induced rat paw oedema inhibition) ([6]; listed as indomethacin) [%]
"Cc1cc(=O)oc2cc(OC(=O)/C=C/c3cccc(Oc4ccccc4)c3)ccc12 [Compound 2d, (E)-4-Methyl-2-oxo-2H-chromen-7-yl 3-(3-phenoxyphenyl)acrylate]",74,0.558 ± 0.040,97,66,10,–,–,–,–
"CC(=O)Nc1ccc(OC(=O)/C=C/c2ccc(OCc3ccc(Br)cc3)cc2)cc1 [Compound 3a, (E)-4-Acetamidophenyl 3-(4-((4-bromobenzyl)oxy)phenyl)acrylate]",55,−0.24 ± 0.009,96,52,100,–,–,–,–
"O=c1cc(O)c2ccccc2o1 [Compound 4-HC, 4-hydroxycoumarin, reference compound]",–,–,100,–,–,62 * %,–,–,–
O=C(O)/C=C/c1ccc(OCc2ccc(Br)cc2)cc1 [II],66,−0.41 ± 0.026,84,67,–,41.6 * %,44,–,–
O=C(O)/C=C/c1cccs1 [IV],–,−0.56 ± 0.019,60,–,–,42.7 * %,–,98,–
O=C(O)/C=C/c1ccccc1 [I],56,−0.485 ± 0.044,78,60.2,55,–,–,–,–
"COc1ccc2c(c1)c(CC(=O)O)c(C)n2C(=O)c1ccc(Cl)cc1 [Indomethacin, reference compound]",–,–,–,–,–,47 * %,–,–,47
